Results on 1 sequence are retold here after US10912817B2, “Prelyophilized, lyophilized and reconstituted formulations comprising TAT-NR2B9C with d-amino acids, histidine and trehalose” (NoNO Inc., priority 2012, dated 2021).

No end group written: not given here.

Common to all, as to format: physicochemical
Data set [1] can be described thus: Solid state stability of lyophilized 270 mg NA-1 in 20 mM histidine pH 6.5 and 120 mM trehalose. Particulars: same lyophile; at −20° C.
Data set [2] can be described thus: 90 mg/mL NA-1 lyophile accelerated stability (small scale 3). Particulars: histidine buffer concentrations of 50 and 75 mM; further tests; shortened resuspension times. Here is the method:
A small batch of NA-1 drug product was lyophilized to evaluate solid state stability after 1 week storage at 25° C. and 60° C. Two 90 mg/mL NA-1 formulations were compounded (buffer and buffer with trehalose). Samples were evaluated for appearance, reconstitution, water content and purity by HPLC (MSA method) at t=0 and t=1 week.
Vials were placed on stability at 25° C. and 60° C. and tested after 1 week of storage.

Data set [3] is described as follows: Solubility study of NA-1 (visual analysis). Conditions: pH 6.5, 35, 50, 75 and 100 mg/mL, t=0 and t=24 hours. Here is the method:
Due to the relatively low Tg temperatures that would likely require a longer lyophilization cycle to dry, we looked at a wider range of standard bulking agents and looked to reduce the fill volume into the container closure system so that there would be a reduced volume of liquid to lyophilize. […] Samples were visually analyzed at 35, 50, 75 and 100 mg/mL. All solutions were clear at t=0 and t=24 hours. […] A wide range of quantities may be required in a vial, but 270 mg would provide a […] dose for a 100 kg patient. Assuming the target reconstitution concentration for patient administration is still 20 mg/mL (but can be from 1 mg/ml to 100 mg/ml), then a 20-mL lyophilization vial containing 270 mg of NA-1 can be used with a reconstitution volume of 13.5 mL. Therefore, optimal volumes of liquid for lyophilization of NA-1 in the vial would be between 2.5 mL and 10 mL.

Regarding YGRKKRRQRRRKLSSIESDV [NA-1], the “stability of the formulation” value in data set [1] is listed as “stable”. Also, the “stability of NA-1” value in data set [2] is listed as “good stability”. Also, the “solubility (visual analysis of solutions)” value in data set [3] (NA-1 in Histidine+Trehalose) and in data set [3] (NA-1 in Histidine) was “clear” each time.
